Measured values taken from patent publication US20060009425A1, “Oral formulations of paricalcitol” (priority 2004, published 2006).
Like-named read-outs stand apart in the source and are kept apart here.

Tests used:
[1] = Single and multiple dose pharmacokinetics, 4 μg QD vs 8 μg TIW, subjects in general good health (Example 5); type: in vivo, human; conditions: for AUC(0-inf) / Cmax / Tmax / half-life / AUC(0-t): human, plasma, oral; for half-life: harmonic mean ± pseudo-standard deviation
Protocol: Methodology: This Phase I, multiple-dose, open-label, randomized study was conducted according to an […], crossover design. Subjects were randomized into two sequence groups of equal size of Regimens A and B. Subjects received the following regimens: • Regimen A: One 4 μg paricalcitol soft elastic capsule on Study Day 1 and one 4 μg paricalcitol capsule QD for 11 doses on Study Days 3 through 13. • Regimen B: Two 4 μg paricalcitol soft elastic capsules three times a week (8 μg TIW) for 6 doses on Study Days 1, 3, 5, 8, 10, and 12.
The paricalcitol dose was administered at approximately 0700, 30 minutes after breakfast was served on the dosing days of each period. Each dose was administered orally with 240 mL of water. A washout interval of at least 7 days separated the dose of period 1 and dose of period 2.
Seven (7) mL blood samples (to yield at least 3 mL of plasma) were obtained by venipuncture for paricalcitol plasma concentration into appropriately labeled EDTA-containing collection tubes. The blood sampling was as shown below in Table 10.
For Regimen B, a blood sample was collected 48 hours after the Study Day 5 dose (Study Day 7) and immediately prior to dosing (0 hour) on Study Day 10.
Plasma concentrations of paricalcitol were determined using a validated liquid chromatography-tandem mass spectrometric assay method at Abbott Laboratories, Abbott Park, Ill. (a proprietary method of Abbott Laboratories). The lower limit of quantification (abbreviated as “LOQ”) of paricalcitol was 0.02 ng/mL using a 0.6 mL plasma sample.
Pharmacokinetics: The following pharmacokinetic parameter values were determined using standard non-compartmental methods: maximum observed plasma concentration (Cmax), time to Cmax(Tmax), terminal phase elimination rate constant (β), terminal elimination half-life (t1/2), area under the plasma concentration vs. time curve extrapolated to infinite time (AUC0-∞) following the first dose and area under the plasma concentration vs. time curve over the dose interval at steady state (AUC0-τ; also referred to as AUC0-48 or AUC0-24 as appropriate). Accumulation index (AI) and degree of fluctuation (DFL) were also evaluated at steady state.
Statistical Methods: An analysis of variance (ANOVA) was performed to compare single- and multiple-dose pharmacokinetics of paricalcitol. The model included effects for sequence, subject nested within sequence, day (i.e., first dose or last dose), and sequence by day interaction. The effect for subject was random, while all other effects were fixed. The analyzed variables include Tmax, β, and the logarithms of AUC and Cmax. The AUC value for the single dose was AUC0-∞, while the AUC for the multiple dose was AUC0-24. The trough concentrations were analyzed using the same ANOVA model described above to address the issue of steady state attainment for the QD regimen.
The logarithmic transformation was also used for AUC. The model had effects for sequence, subject nested within sequence, period and regimen. The effect for subject was random, while all other effects were fixed. […] Study Day 1 Tmax, β, dose-normalized Cmax and AUC0-∞ from Regimen A and Regimen B were analyzed using the same ANOVA model. […] This same model again was used to compare Regimen A and Regimen B with respect to AI values.

[2] = tested on: serum and urine pharmacodynamic markers; assay: Serum and urine pharmacodynamic markers, moderate to severe renal impairment (Example 4)
Protocol: Blood samples for paricalcitol assay were collected by venipuncture into 7 mL evacuated EDTA-containing collection tubes within 5 minutes prior to dosing (0 hour) and at 0.5, 1, 2, 3, 4, 6, 8, 12, 24, 36, and 48 hours after dosing on Study Days 1 and 8. Sufficient blood was collected to provide approximately 2.5 mL plasma from each sample. In addition, urine was collected for 48 hours following Study Day 1 dosing. Serum and urine pharmacodynamic markers, were measured at selected time points in the study. Also, a 24 hr urine amount of urine pharmacodynamic markers were measured following paricalcitol dose on Study Days 1 and 8.
Pharmacodynamic: Serum pharmacodynamic markers [serum calcium, calcium-phosphorus product (Ca×P), serum phosphorus, serum bone specific alkaline phosphatase (AP), serum osteocalcin, serum C-terminal telopeptide of collagen (CTx), serum tartarate resistant acid phosphatase-type 5b (TRAP-5b), intact (iPTH) and whole PTH] were measured from samples collected immediately prior to dosing on Study Days 1, 3, 5, and 8. One additional sample was collected 48 hours following the Study Day 8 dose (on the morning of Study Day 10). Urine pharmacodynamic markers [calcium, creatinine and deoxy-pyridinoline (DPD)] were measured from samples collected immediately prior to dosing on Study Days 1 and 8, and during the intervals 0 to 4, 4 to 8, 8 to 12, and 12 to 24 hours after dosing on Study Days 1 and 8. In addition, these markers were measured using the first morning void sample on Study Days 3, 5, and 10.
Pharmacodynamic: Two-sample t-tests were performed to compare baseline pharmacodynamic marker values between the two renal impairment groups. For improving the normality of the distribution of the baseline values, natural logarithm transformations were made to all the pharmacodynamic markers except for the urine calcium and urine creatinine. The relationship between the % change from Study Day 1 to Study Day 10 and the Study Day 1 paricalcitol AUC0-∞ was investigated using linear regression. The Study Day 1 AUC0-∞ and the corresponding baseline value were independent variables. A one-sample t-test was performed for each group on the change from Study Day 1 to Study Day 8 in 24-hour amount of urine calcium and creatinine.

[3] = Regimen A 4 μg QD, Study Day 12
[4] = Regimen A 4 μg QD, Study Day 13
[5] = Regimen B 8 μg TIW, Study Day 1
[6] = Regimen B 8 μg TIW, Study Day 12 and 13
[7] = 4 ug, Regimen A 4 μg QD, Study Day 1
[8] = 4 ug, Regimen A 4 μg QD, Study Day 12
[9] = 4 ug, Regimen A 4 μg QD, Study Day 13
[10] = 8 ug, Regimen B 8 μg TIW, Study Day 1
[11] = 8 ug, Regimen B 8 μg TIW, Study Day 12 and 13
[12] = moderate and severe renal impairment groups, supra-pharmacologic fixed doses, 1-week study
[13] = moderate renal impairment, Study Day 1
[14] = moderate renal impairment, Study Day 8
[15] = severe renal impairment, Study Day 1
[16] = severe renal impairment, Study Day 8

SMILES: C[C@H](/C=C/[C@H](C)C(C)(C)O)[C@H]1CC[C@H]2/C(=C/C=C3C[C@@H](O)C[C@H](O)C3)CCC[C@]12C [Paricalcitol, 19-nor-1α,3β,25-trihydroxy-9,10-secoergosta-5(Z); 7(E),22(E)-triene]
- steady state reached by ([1]; 4 μg QD or 8 μg TIW): ≤ 7 Study Day
- CL/F ([1]; Regimen A 4 μg QD, Study Day 1): 3.95 ± 1.19^Φ L/h
- Vdβ/F ([1]; Regimen A 4 μg QD, Study Day 1): 38.9 ± 18.7^Φ L
- AI [1, 3]: 1.759 ± 1.829
- CL/F [1, 3]: 4.33 ± 2.08 L/h
- Cmin [1, 3]: 0.005 ± 0.010 ng/mL
- DFL [1, 3]: 2.584 ± 0.889
- Vdβ/F [1, 3]: 44.9 ± 23.0^ε L
- AI [1, 4]: 1.483 ± 1.442
- AUC/Dose (AUC0-24/Dose) [1, 4]: 0.226 ± 0.049 ng·h/mL/µg
- CL/F [1, 4]: 4.65 ± 1.16 L/h
- Cmin [1, 4]: 0.001 ± 0.005 ng/mL
- DFL [1, 4]: 2.761 ± 0.761
- Vdβ/F [1, 4]: 43.7 ± 17.9^ε L
- CL/F [1, 5]: 3.65 ± 1.61 L/h
- Vdβ/F [1, 5]: 41.0 ± 12.7 L
- AI [1, 6]: 1.000 ± 0.312
- CL/F [1, 6]: 3.79 ± 1.07 L/h
- Cmin [1, 6]: 0.000 ± 0.000 ng/mL
- DFL [1, 6]: 4.637 ± 1.397
- Vdβ/F [1, 6]: 42.1 ± 28.7^δ L
- AUC(0-inf) [1, 7]: 1.11 ± 0.342 ng·h/mL
- Cmax [1, 7]: 0.1 ± 0.033 ng/mL
- Tmax [1, 7]: 4.8 ± 2.8 h
- half-life [1, 7]: 6.2 ± 2.1 h
- AUC(0-t) ([1]; 4 ug, Regimen A 4 μg QD, Study Day 1, read-out: AUC0-t): 0.701 ± 0.339 ng·h/mL
- Cmax [1, 8]: 0.112 ± 0.031 ng/mL
- Tmax [1, 8]: 4.4 ± 2.6 h
- half-life [1, 8]: 6.8 ± 3.1 h
- AUC(0-t) ([1]; 4 ug, Regimen A 4 μg QD, Study Day 12, read-out: AUC0-τ (AUC0-24)): 1.07 ± 0.359 ng·h/mL
- Cmax [1, 9]: 0.105 ± 0.035 ng/mL
- Tmax [1, 9]: 4.5 ± 1.6 h
- half-life [1, 9]: 5.8 ± 2.5 h
- AUC(0-t) ([1]; 4 ug, Regimen A 4 μg QD, Study Day 13, read-out: AUC0-τ (AUC0-24)): 0.904 ± 0.196 ng·h/mL
- AUC(0-inf) [1, 10]: 2.55 ± 1.08 ng·h/mL
- Cmax [1, 10]: 0.2 ± 0.062 ng/mL
- Tmax [1, 10]: 4.4 ± 1.4 h
- half-life [1, 10]: 7.3 ± 3.2 h
- AUC(0-t) ([1]; 8 ug, Regimen B 8 μg TIW, Study Day 1, read-out: AUC0-t): 2.05 ± 0.881 ng·h/mL
- Cmax [1, 11]: 0.217 ± 0.077 ng/mL
- Tmax [1, 11]: 4.3 ± 2.6 h
- half-life [1, 11]: 6.8 ± 2.2 h
- AUC(0-t) ([1]; 8 ug, Regimen B 8 μg TIW, Study Day 12 and 13, read-out: AUC0-τ (AUC0-48)): 2.26 ± 0.566 ng·h/mL
- dose proportionality of pharmacokinetics ([1]; single dose and steady state over the studied dose range): dose proportional
- PTH levels [2, 12]: significant decrease
- calcium, phosphorus, Ca×P levels [2, 12]: increases
- Ca/Creatinine, urine over 24 hours after dose [2, 13]: 0.045 ± 0.051
- Calcium, total amount excreted in urine over 24 hours after dose [2, 13]: 49.39 ± 56.85 mg
- Creatinine, total amount excreted in urine over 24 hours after dose [2, 13]: 1326.7 ± 566.1 mg
- DPD, total amount excreted in urine over 24 hours after dose [2, 13]: 52.03 ± 18.96 nmol
- Ca/Creatinine, urine over 24 hours after dose [2, 14]: 0.074 ± 0.078
- Calcium, total amount excreted in urine over 24 hours after dose [2, 14]: 79.24 ± 63.27 mg
- Creatinine, total amount excreted in urine over 24 hours after dose [2, 14]: 1324.4 ± 402.0 mg
- DPD, total amount excreted in urine over 24 hours after dose [2, 14]: 58.60 ± 16.45 nmol
- 24-hour urinary excretion of calcium ([2]; repeated dosing): does not affect
- Ca/Creatinine, urine over 24 hours after dose [2, 15]: 0.028 ± 0.019
- Calcium, total amount excreted in urine over 24 hours after dose [2, 15]: 29.18 ± 20.97 mg
- Creatinine, total amount excreted in urine over 24 hours after dose [2, 15]: 1088.3 ± 278.6 mg
- DPD, total amount excreted in urine over 24 hours after dose [2, 15]: 48.34 ± 21.04 nmol
- Calcium, total amount excreted in urine over 24 hours after dose [2, 16]: 50.92 ± 41.18 mg
- DPD, total amount excreted in urine over 24 hours after dose [2, 16]: 47.74 ± 20.47 nmol
